From the supplement of paper PMC13380429

Tests used:
[1] = test system: HepG2; assay: relative viability EC50 (midpoint between 100% and the lowest measured viability); higher = less toxic; conditions: 72 h
[2] = test system: Caco-2; assay: as above; conditions: 72 h
[3] = test system: Vero E6; assay: as above; conditions: 72 h
[4] = test system: U2OS; assay: as above; conditions: 72 h
[5] = test system: Calu-3; assay: as above; conditions: 72 h
[6] = test system: A549-ACE2; assay: drug-induced phospholipidosis relative to tamoxifen; higher = more phospholipidosis
[7] = test system: A549-ACE2 infected with SARS-CoV-2; assay: SARS-CoV-2 infection rate relative to DMSO; higher = more infection; conditions: 24 h
[8] = test system: HepG2; assay: drug sensitivity score (DSS) for viability; higher = more toxic; extreme values may be limits of the assay; conditions: 72 h
[9] = test system: Caco-2; assay: as above; conditions: 72 h
[10] = test system: Vero E6; assay: as above; conditions: 72 h
[11] = test system: U2OS; assay: as above; conditions: 72 h
[12] = test system: Calu-3; assay: as above; conditions: 72 h
[13] = test system: HepG2; assay: cell viability relative to DMSO; higher = less toxic; conditions: 72 h
[14] = test system: Caco-2; assay: as above; conditions: 72 h
[15] = test system: Vero E6; assay: as above; conditions: 72 h
[16] = test system: U2OS; assay: as above; conditions: 72 h
[17] = test system: Calu-3; assay: as above; conditions: 72 h
[18] = test system: A549-ACE2 infected with SARS-CoV-2; assay: cell count relative to DMSO; higher = less toxic; conditions: 24 h
[19] = test system: A549-ACE2 infected with SARS-CoV-2; assay: morphology score (similarity to uninfected cells); higher = more like uninfected cells; conditions: 24 h

CC1(C)CC[C@]2(C(=O)O)CC[C@]3(C)[C@H](C(=O)C=C4[C@@]5(C)C=C(C#N)C(=O)C(C)(C)[C@@H]5CC[C@]43C)[C@@H]2C1 [bardoxolone]
Conditions | drug sensitivity score | relative viability EC50 [µM]
[1] | – | 1.28
[2] | – | > 10
[3] | – | 3.43
[4] | – | 1.37
[5] | – | 2.44
[8] | 9.5 | –
[9] | 5.3 | –
[10] | 4.2 | –
[11] | 8.9 | –
[12] | 5.9 | –

drug-induced phospholipidosis [%], [6]
Conditions | 0.3 µM | 0.833333 µM | 3.33333 µM | 6.66667 µM | 10 µM
24 h | -1.07 | -5.8 | 7.86 | 18.2 | -6.56
48 h | -3.77 | -7.72 | 1.1 | – | –
72 h | -2.71 | -7.17 | – | – | –

Conditions | SARS-CoV-2 infection rate, [7] [%] | cell count, [18] [%] | cell viability, [13] [%] | cell viability, [14] [%] | cell viability, [15] [%] | cell viability, [16] [%] | cell viability, [17] [%] | morphology score, [19]
1 nM | – | – | 98.2 | 91.3 | 101 | 101 | 102 | –
10 nM | – | – | 92.1 | 107 | 102 | 104 | 104 | –
0.1 µM | 97 | 101 | – | – | – | – | – | 0.07
100 nM | – | – | 89.7 | 78.1 | 111 | 102 | 102 | –
0.3 µM | 99 | 91 | – | – | – | – | – | -0.05
1 µM | 99 | 89 | – | – | – | – | – | -0.09
1000 nM | – | – | 62.8 | 83.8 | 104 | 72.3 | 92.5 | –
3 µM | 115 | 94 | – | – | – | – | – | -0.26
10000 nM | – | – | 5.4 | 82.9 | 18.3 | 12 | 15.5 | –

Cn1cc(-c2ccc3c(c2)CCN3C(=O)Cc2cccc(C(F)(F)F)c2)c2c(N)ncnc21
Conditions | drug sensitivity score | relative viability EC50 [µM]
[1] | – | 3.28
[4] | – | > 10
[8] | 2.6 | –
[9] | 4.7 | –
[10] | 1.2 | –
[11] | 1.5 | –
[12] | 2.4 | –

drug-induced phospholipidosis [%], [6]
Conditions | 0.3 µM | 0.833333 µM | 3.33333 µM | 6.66667 µM | 10 µM | 30 µM
24 h | 1.57 | 0.73 | 1.92 | 3.67 | 12.1 | 28.6
48 h | 3.63 | 1.52 | 3.02 | 3.48 | 8.65 | 18.6
72 h | 2.2 | 0.314 | 1.31 | 3.34 | 7.89 | 22.2

Conditions | SARS-CoV-2 infection rate, [7] [%] | cell count, [18] [%] | cell viability, [13] [%] | cell viability, [14] [%] | cell viability, [15] [%] | cell viability, [16] [%] | cell viability, [17] [%] | morphology score, [19]
1 nM | – | – | 87.4 | 100 | 95.3 | 103 | 106 | –
10 nM | – | – | 98.3 | 86.6 | 94 | 97.4 | 94 | –
0.1 µM | 102 | 97 | – | – | – | – | – | 0.02
100 nM | – | – | 84 | 66.9 | 96.6 | 102 | 96 | –
0.3 µM | 96 | 104 | – | – | – | – | – | 0.18
1 µM | 102 | 105 | – | – | – | – | – | 0.12
1000 nM | – | – | 101 | 103 | 107 | 95.2 | 92.5 | –
3 µM | 87 | 112 | – | – | – | – | – | 0.4
10000 nM | – | – | 48.6 | 61.6 | 67.1 | 77.3 | 68.9 | –
